Measured values as given in patent US20250257054A1, “SALT FORMS OF A 4H-PYRAN-4-ONE STRUCTURED CYP11 A1 INHIBITOR” (ORION CORPORATION, priority 2021, published 2025).
Structures can show the parent of a compound that is named as a salt. Values belong to the compound of their own block, whether it stands above or below them.

What was measured:
Type in all cases: physicochemical
[1] = Short-term physical stability of salts at 40° C./75% RH for 2 weeks (XRPD); conditions: determined by XRPD
Procedure: (§1) XRPD measurements were performed with the X-ray powder diffractometer Bruker D8 Advance at room temperature, using a copper filled X-ray tube (40 kV×40 mA) as the X-ray source, CuKα (λ=1.5418 Å), a 0.6 mm divergence slit, 2.5° Soller slits on both the primary and secondary beams and the 1-dimensional LynxEye detector (with aperture angle of 2.91593°). Data collection was done in the range of 3.8-33° 2θ with 0.02° increments, at a scan speed of 0.3°/s.
Short-term physical stability of various salts was studied by exposure at 40° C./75% RH for 2 weeks followed by measurement by XRPD.

[2] = Slurry stability of crystalline forms of p-toluenesulfonic acid salt in different water activity conditions (XRPD); conditions: for Resulting form 5° C. / Resulting form 25° C. / Resulting form 40° C.: slurry of Form 3 stirred 2-3 weeks; for Water activity in which the crystalline form is favoured: slurry experiments, values stated as 'about'
Procedure: as §1
Stability of the crystalline forms of p-toluenesulfonic acid salt in different water activity conditions was studied in slurry experiments where crystalline form 3 was stirred for 2-3 weeks at 5° C., 25° C. and 40° C. in mixtures of ethanol:water, acetonitrile (ACN):water, methanol: water and methanol alone. 0.5 ml of solvent was added to 25 mg of each sample. The resulting crystalline form was determined by XRPD.

[3] = Crystalline transformation of form 2 on drying; conditions: higher drying temperatures (than about 20-60° C., under reduced pressure)
Procedure: In a preferred method, crystalline form 2 is prepared in high polymorphic purity and in consistent manner by first dissolving compound (I) in a mixture of acetonitrile and water, where the amount of water is from about 5% to about 15%, preferably from 6% to 12%, per volume of the mixture. The amount of compound (I) is suitably from about 5 g to about 15 g, preferably from about 9 g to 13 g, for example, about 11 g, per 100 ml of the solvent. If desired, activated carbon, celite and/or triamine metal scavenger may also be added. The mixture may be heated, for example, to a temperature of about 50-80° C., more specifically to about 70-80° C. The mixture can be thereafter filtered. To the filtrate is then added p-toluenesulfonic acid monohydrate, for example, in about equivalent molar amount, under heating at a temperature of about 50-80° C., more specifically at about 70° C. The mixture may then be cooled to about 60° C. and seeded, if desired. The mixture can then be stirred in this temperature for about 1 h, followed by cooling, for example to about 0-20° C., more specifically to about 5° C., to precipitate the product. The crystalline form 2 can be washed, for example, with water, and dried at about 20-60° C., preferably at about 25-35° C., for example at about 30° C., under reduced pressure. […]

[4] = ACN:water 92.1:7.9, water activity 0.81
[5] = ACN:water 96.3:3.7, water activity 0.58
[6] = EtOH:water 30:70, water activity >0.9
[7] = EtOH:water 83:17, water activity 0.64
[8] = EtOH:water 92.8:7.2, water activity 0.40
[9] = EtOH:water 96.7:3.3, water activity 0.22
[10] = MeOH:water 36:64, water activity 0.83
[11] = MeOH:water 77:23, water activity 0.52
[12] = MeOH:water 90:10, water activity 0.30
[13] = MeOH:water 95.3:4.7, water activity 0.16

SMILES: CS(=O)(=O)N1CCC(COc2coc(CN3Cc4ccc(C(F)(F)F)cc4C3)cc2=O)CC1 [2-Naphthalenesulphonic acid salt (form 1)] [5-((1-(methyl-sulfonyl)piperidin-4-yl)methoxy)-2-((5-(trifluoromethyl)isoindolin-2-yl)methyl)-4H-pyran-4-one]
Form after 2 weeks [1]: No change

SMILES: CS(=O)(=O)N1CCC(COc2coc(CN3Cc4ccc(C(F)(F)F)cc4C3)cc2=O)CC1 [Benzenesulfonic acid salt (form 1), 5-((1-(methyl-sulfonyl)piperidin-4-yl)methoxy)-2-((5-(trifluoromethyl)isoindolin-2-yl)methyl)-4H-pyran-4-one]
Form after 2 weeks [1]: No change

SMILES: CS(=O)(=O)N1CCC(COc2coc(CN3Cc4ccc(C(F)(F)F)cc4C3)cc2=O)CC1 [Form 3, 5-((1-(methylsulfonyl)-piperidin-4-yl)methoxy)-2-((5-(trifluoromethyl)isoindolin-2-yl)methyl)-4H-pyran-4-one]
Stability of the crystalline form in the slurry conditions ([2]; slurry in solvent:water mixtures and methanol, 5-40° C., 2-3 weeks): unstable | Resulting form 5° C. [2, 4]: Form 2 | Resulting form 25° C. [2, 4]: Form 2 | Resulting form 40° C. [2, 4]: Form 2 | Resulting form 5° C. [2, 5]: Form 2 | Resulting form 25° C. [2, 5]: Form 2 | Resulting form 40° C. [2, 5]: Form 2 | Resulting form 5° C. [2, 6]: Form 2 | Resulting form 25° C. [2, 6]: Form 2 | Resulting form 40° C. [2, 6]: Form 2 | Resulting form 5° C. [2, 7]: Form 2 | Resulting form 25° C. [2, 7]: Form 2 | Resulting form 40° C. [2, 7]: Form 2 | Resulting form 5° C. [2, 8]: Form 1 | Resulting form 25° C. [2, 8]: Form 1 | Resulting form 40° C. [2, 8]: Form 1 | Resulting form 5° C. [2, 9]: Form 1 | Resulting form 25° C. [2, 9]: Form 1 | Resulting form 40° C. [2, 9]: Form 1 | Resulting form 5° C. ([2]; MeOH alone): Form 1 | Resulting form 25° C. ([2]; MeOH alone): Form 1 | Resulting form 40° C. ([2]; MeOH alone): Form 1 | Resulting form 5° C. [2, 10]: Form 2 | Resulting form 25° C. [2, 10]: Form 2 | Resulting form 40° C. [2, 10]: Form 2 | Resulting form 5° C. [2, 11]: Form 2 | Resulting form 25° C. [2, 11]: Form 2 | Resulting form 40° C. [2, 11]: Form 1 | Resulting form 5° C. [2, 12]: Form 1 | Resulting form 25° C. [2, 12]: Form 1 | Resulting form 40° C. [2, 12]: Form 1 | Resulting form 5° C. [2, 13]: Form 1 | Resulting form 25° C. [2, 13]: Form 1 | Resulting form 40° C. [2, 13]: Form 1

SMILES: CS(=O)(=O)N1CCC(COc2coc(CN3Cc4ccc(C(F)(F)F)cc4C3)cc2=O)CC1 [Hydrobromic acid salt (form 1), 5-((1-(methyl-sulfonyl)piperidin-4-yl)methoxy)-2-((5-(trifluoromethyl)isoindolin-2-yl)methyl)-4H-pyran-4-one]
Form after 2 weeks [1]: No change

SMILES: CS(=O)(=O)N1CCC(COc2coc(CN3Cc4ccc(C(F)(F)F)cc4C3)cc2=O)CC1 [Hydrochloric acid salt (form 1), 5-((1-(methyl-sulfonyl)piperidin-4-yl)methoxy)-2-((5-(trifluoromethyl)isoindolin-2-yl)methyl)-4H-pyran-4-one]
Form after 2 weeks [1]: No change

SMILES: CS(=O)(=O)N1CCC(COc2coc(CN3Cc4ccc(C(F)(F)F)cc4C3)cc2=O)CC1 [Maleic acid salt (form 1), 5-((1-(methyl-sulfonyl)piperidin-4-yl)methoxy)-2-((5-(trifluoromethyl)isoindolin-2-yl)methyl)-4H-pyran-4-one]
Form after 2 weeks [1]: Form 1 + extra peaks

SMILES: CS(=O)(=O)N1CCC(COc2coc(CN3Cc4ccc(C(F)(F)F)cc4C3)cc2=O)CC1 [Methanesulfonic acid salt (form 1), 5-((1-(methyl-sulfonyl)piperidin-4-yl)methoxy)-2-((5-(trifluoromethyl)isoindolin-2-yl)methyl)-4H-pyran-4-one]
Form after 2 weeks [1]: No change

SMILES: CS(=O)(=O)N1CCC(COc2coc(CN3Cc4ccc(C(F)(F)F)cc4C3)cc2=O)CC1 [Oxalic acid salt (form 1), 5-((1-(methyl-sulfonyl)piperidin-4-yl)methoxy)-2-((5-(trifluoromethyl)isoindolin-2-yl)methyl)-4H-pyran-4-one]
Form after 2 weeks [1]: Form 1 + extra peaks

Continued, in another order:

Form after 2 weeks [1]: No change
SMILES: CS(=O)(=O)N1CCC(COc2coc(CN3Cc4ccc(C(F)(F)F)cc4C3)cc2=O)CC1 [Oxalic acid salt (form 2), 5-((1-(methyl-sulfonyl)piperidin-4-yl)methoxy)-2-((5-(trifluoromethyl)isoindolin-2-yl)methyl)-4H-pyran-4-one]

Form after 2 weeks [1]: Form 3 + extra peaks
SMILES: CS(=O)(=O)N1CCC(COc2coc(CN3Cc4ccc(C(F)(F)F)cc4C3)cc2=O)CC1 [Oxalic acid salt (form 3), 5-((1-(methyl-sulfonyl)piperidin-4-yl)methoxy)-2-((5-(trifluoromethyl)isoindolin-2-yl)methyl)-4H-pyran-4-one]

Form after 2 weeks [1]: No change
SMILES: CS(=O)(=O)N1CCC(COc2coc(CN3Cc4ccc(C(F)(F)F)cc4C3)cc2=O)CC1 [Oxalic acid salt (form 4), 5-((1-(methyl-sulfonyl)piperidin-4-yl)methoxy)-2-((5-(trifluoromethyl)isoindolin-2-yl)methyl)-4H-pyran-4-one]

Water activity in which the crystalline form is favoured ([2]; 5-40° C., 2-3 weeks, listed as crystalline form 1 of p-toluenesulfonic acid salt): up to 0.4 | Form after 2 weeks [1]: No change
SMILES: CS(=O)(=O)N1CCC(COc2coc(CN3Cc4ccc(C(F)(F)F)cc4C3)cc2=O)CC1 [p-Toluenesulfonic acid salt (form 1), 5-((1-(methylsulfonyl)-piperidin-4-yl)methoxy)-2-((5-(trifluoromethyl)isoindolin-2-yl)methyl)-4H-pyran-4-one]

Water activity in which the crystalline form is favoured ([2]; 5-40° C., 2-3 weeks, listed as Crystalline form 2 of p-toluenesulfonic acid salt): higher than 0.5 | Form after 2 weeks [1]: No change
SMILES: CS(=O)(=O)N1CCC(COc2coc(CN3Cc4ccc(C(F)(F)F)cc4C3)cc2=O)CC1 [p-Toluenesulfonic acid salt (form 2), 5-((1-(methylsulfonyl)-piperidin-4-yl)methoxy)-2-((5-(trifluoromethyl)isoindolin-2-yl)methyl)-4H-pyran-4-one]
Crystalline transformation on drying [3]: some transformation of crystalline form 2 into crystalline form 1
